The record followed here is ChEMBL document CHEMBL3108681, “Inhibitors of Tropomyosin-Receptor Kinases (Trk's): Potential Pain Therapy and More” (ACS Med Chem Lett, 2014).

In the assay the target is High affinity nerve growth factor receptor (Homo sapiens, UniProt P04629). In words: Inhibition of TrkA (unknown origin) using fluorescently labeled peptide substrate after 3 hrs.

By EC50 is commonly meant the concentration that produces a half-maximal response. The low end stands for an effect from little substance, the high end for a need for much substance.

Sequence of High affinity nerve growth factor receptor (P04629 whole entry): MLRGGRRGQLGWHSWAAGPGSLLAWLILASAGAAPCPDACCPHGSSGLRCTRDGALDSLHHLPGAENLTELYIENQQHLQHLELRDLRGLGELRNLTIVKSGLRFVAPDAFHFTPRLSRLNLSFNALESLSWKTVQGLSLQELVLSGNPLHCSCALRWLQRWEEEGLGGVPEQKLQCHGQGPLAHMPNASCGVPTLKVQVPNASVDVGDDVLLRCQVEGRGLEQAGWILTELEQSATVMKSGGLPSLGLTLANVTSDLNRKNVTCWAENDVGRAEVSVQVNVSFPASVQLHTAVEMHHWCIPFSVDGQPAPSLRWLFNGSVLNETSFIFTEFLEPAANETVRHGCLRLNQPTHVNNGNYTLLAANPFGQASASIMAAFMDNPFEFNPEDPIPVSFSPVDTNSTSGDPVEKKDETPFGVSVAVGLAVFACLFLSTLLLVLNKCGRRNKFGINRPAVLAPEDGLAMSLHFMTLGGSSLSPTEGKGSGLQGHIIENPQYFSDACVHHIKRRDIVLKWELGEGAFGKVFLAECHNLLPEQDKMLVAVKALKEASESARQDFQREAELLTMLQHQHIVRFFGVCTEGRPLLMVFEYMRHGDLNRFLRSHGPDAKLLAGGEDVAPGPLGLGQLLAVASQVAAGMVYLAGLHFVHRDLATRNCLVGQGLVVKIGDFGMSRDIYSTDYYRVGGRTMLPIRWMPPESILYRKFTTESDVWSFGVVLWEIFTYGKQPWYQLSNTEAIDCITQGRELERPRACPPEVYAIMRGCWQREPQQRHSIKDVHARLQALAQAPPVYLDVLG

Compound `CC(C)N(Cc1c[nH]c2ncccc12)C(=O)Nc1ccc(SC(F)(F)F)cc1` yielded an EC50 of 6.5 nM.
With `CC1(C)CN(c2ccc(OC(F)(F)F)cc2)C(=O)N1Cc1cccc(-c2nccs2)c1` the figure was 1010 nM; with `CC(C)N(Cc1c[nH]c2ncccc12)C(=O)Nc1ccc(OC(F)(F)F)cc1`, 11.3 nM.
